Measured values from patent US9518026B2, “5-aminopyrazole-4-carboxamide inhibitors of CDPK1 from T. gondii and C. parvum” (UNIVERSITY OF WASHINGTON THROUGH ITS CENTER FOR …, priority 2013, dated 2016).
Read-outs that look alike come from different tables or passages of the source.

What was measured:
TgCDPK1 = TgCDPK1 (Toxoplasma gondii, UniProt Q9BJF5); test: biochemical
CpCDPK1 = CpCDPK1 (Cryptosporidium parvum (strain Iowa II), UniProt A3FQ16); test: biochemical
T. gondii = test: Inhibition of T. gondii cell proliferation; assay type: cell-based; conditions: Toxoplasma gondii
[1] = Cytotoxicity against CRL8155 cell line; assay type: cell-based; conditions: human, CRL8155 cells (lymphoblast, spleen)
Src = Src (Homo sapiens (Human), UniProt P12931); test: biochemical
Src, sequence (P12931 270-523): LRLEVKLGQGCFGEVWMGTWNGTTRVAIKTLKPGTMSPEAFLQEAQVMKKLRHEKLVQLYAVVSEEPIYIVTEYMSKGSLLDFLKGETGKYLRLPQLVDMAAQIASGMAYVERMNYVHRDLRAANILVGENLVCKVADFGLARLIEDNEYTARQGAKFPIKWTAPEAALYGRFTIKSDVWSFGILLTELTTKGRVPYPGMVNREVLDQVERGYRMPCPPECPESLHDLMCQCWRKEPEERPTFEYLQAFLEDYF

Cell toxicity in HepG2 = assay type: cell-based; conditions: human, HepG2 cells (hepatocellular carcinoma); Table 4
Method: All compounds were assayed for inhibition of TgCDPK1 and CpCDPK1 and on the small-gatekeeper (Thr) human kinases, Src and Abl. Human cell toxicity was evaluated in two human cell lines, HepG2 (hepatocellular carcinoma) and CRL8155 (lymphoblast, spleen). hERG inhibition has been associated with long Q-T syndrome (cardiotoxicity), and the compounds were evaluated for hERG inhibitory activity.

Abl = Abl (Homo sapiens (Human), UniProt P00519); test: biochemical
Abl, sequence (P00519 242-493): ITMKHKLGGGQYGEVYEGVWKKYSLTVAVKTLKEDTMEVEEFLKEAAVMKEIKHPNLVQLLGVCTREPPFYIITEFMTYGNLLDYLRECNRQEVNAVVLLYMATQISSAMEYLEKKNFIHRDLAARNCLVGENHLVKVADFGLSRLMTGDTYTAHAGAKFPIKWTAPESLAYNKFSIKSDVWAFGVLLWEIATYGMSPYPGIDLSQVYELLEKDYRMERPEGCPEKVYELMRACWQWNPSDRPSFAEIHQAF

C. parvum = test: Inhibition of C. parvum proliferation; assay type: cell-based; conditions: Cryptosporidium parvum, read-out: Inhibit Parasite Prolif. (EC50, μM) C. parvum
hERG = hERG (Homo sapiens (Human), UniProt Q12809); test: biochemical; assay type: binding
hERG, sequence (Q12809 whole entry): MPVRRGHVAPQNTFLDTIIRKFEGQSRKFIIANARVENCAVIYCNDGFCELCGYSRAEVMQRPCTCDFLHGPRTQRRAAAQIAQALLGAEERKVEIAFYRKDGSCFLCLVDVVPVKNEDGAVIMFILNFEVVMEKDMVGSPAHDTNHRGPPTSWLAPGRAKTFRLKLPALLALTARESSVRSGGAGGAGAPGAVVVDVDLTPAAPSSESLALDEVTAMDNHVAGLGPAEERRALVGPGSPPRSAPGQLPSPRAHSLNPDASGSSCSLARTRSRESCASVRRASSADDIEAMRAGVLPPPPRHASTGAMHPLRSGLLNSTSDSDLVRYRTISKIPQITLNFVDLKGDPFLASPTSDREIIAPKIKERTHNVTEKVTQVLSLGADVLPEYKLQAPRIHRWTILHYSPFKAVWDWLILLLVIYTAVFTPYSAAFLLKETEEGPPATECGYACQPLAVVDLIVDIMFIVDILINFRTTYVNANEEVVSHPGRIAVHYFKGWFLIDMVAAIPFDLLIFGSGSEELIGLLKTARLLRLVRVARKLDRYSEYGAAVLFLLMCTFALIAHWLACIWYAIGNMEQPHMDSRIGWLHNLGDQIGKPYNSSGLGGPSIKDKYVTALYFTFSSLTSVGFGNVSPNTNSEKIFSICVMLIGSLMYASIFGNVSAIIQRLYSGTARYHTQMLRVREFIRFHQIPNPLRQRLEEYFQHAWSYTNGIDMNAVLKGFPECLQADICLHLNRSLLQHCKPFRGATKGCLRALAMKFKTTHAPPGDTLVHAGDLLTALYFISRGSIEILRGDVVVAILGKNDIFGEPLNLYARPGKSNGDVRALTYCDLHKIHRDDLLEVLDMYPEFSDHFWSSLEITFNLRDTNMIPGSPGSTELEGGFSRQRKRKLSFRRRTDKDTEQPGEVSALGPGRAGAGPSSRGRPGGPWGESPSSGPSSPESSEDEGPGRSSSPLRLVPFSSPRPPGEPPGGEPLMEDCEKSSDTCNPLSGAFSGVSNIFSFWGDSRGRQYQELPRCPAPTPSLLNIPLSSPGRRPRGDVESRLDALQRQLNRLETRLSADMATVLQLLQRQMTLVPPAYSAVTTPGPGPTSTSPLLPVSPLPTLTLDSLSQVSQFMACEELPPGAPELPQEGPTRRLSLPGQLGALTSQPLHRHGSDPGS

Solubility at pH 6.5 = assay type: physicochemical
[2] = tested on: T. gondii Type 1 RH strain tachyzoites; test: T. gondii infection in mice; assay type: in vivo; conditions: CF-1 mice, peritoneal lavage day 8
Description: 1×10^5 T. gondii Type 1 RH strain tachyzoites expressing YFP were inoculated i.p. into 4-5 wk old female CF-1 mice (n=4). […] On day 8, the mice were killed, and underwent peritoneal lavage. T. gondii were enumerated via fluorescent microscopy and plotted, per mouse.

P-gp = test: Diffusion across the MDCK-PGP monolayer; assay type: in vitro ADME; conditions: dog, MDCK-MDR1; predicts CNS penetration
[3] = tested on: 80 human protein kinases (hPKs); test: AbbVie panel of 80 human protein kinases; assay type: biochemical; conditions: at levels up to 3 μM; tested by AbbVie
[4] = tested on: 24 off-target liabilities (e.g. ion channels, G-protein receptors); test: 24 off-target liability screen; conditions: tested by AbbVie
[5] = Stability (comparison of compound 39 and compound 9)
[6] = Oral availability (comparison of compound 39 and compound 9); assay type: in vivo; conditions: compared with compound 9 (1294)
Prkcn = Prkcn (Homo sapiens (Human), UniProt O94806); test: Kinase panel selectivity: Prkcn; assay type: biochemical
Prkcn, sequence (O94806 whole entry, looked up, species assumed): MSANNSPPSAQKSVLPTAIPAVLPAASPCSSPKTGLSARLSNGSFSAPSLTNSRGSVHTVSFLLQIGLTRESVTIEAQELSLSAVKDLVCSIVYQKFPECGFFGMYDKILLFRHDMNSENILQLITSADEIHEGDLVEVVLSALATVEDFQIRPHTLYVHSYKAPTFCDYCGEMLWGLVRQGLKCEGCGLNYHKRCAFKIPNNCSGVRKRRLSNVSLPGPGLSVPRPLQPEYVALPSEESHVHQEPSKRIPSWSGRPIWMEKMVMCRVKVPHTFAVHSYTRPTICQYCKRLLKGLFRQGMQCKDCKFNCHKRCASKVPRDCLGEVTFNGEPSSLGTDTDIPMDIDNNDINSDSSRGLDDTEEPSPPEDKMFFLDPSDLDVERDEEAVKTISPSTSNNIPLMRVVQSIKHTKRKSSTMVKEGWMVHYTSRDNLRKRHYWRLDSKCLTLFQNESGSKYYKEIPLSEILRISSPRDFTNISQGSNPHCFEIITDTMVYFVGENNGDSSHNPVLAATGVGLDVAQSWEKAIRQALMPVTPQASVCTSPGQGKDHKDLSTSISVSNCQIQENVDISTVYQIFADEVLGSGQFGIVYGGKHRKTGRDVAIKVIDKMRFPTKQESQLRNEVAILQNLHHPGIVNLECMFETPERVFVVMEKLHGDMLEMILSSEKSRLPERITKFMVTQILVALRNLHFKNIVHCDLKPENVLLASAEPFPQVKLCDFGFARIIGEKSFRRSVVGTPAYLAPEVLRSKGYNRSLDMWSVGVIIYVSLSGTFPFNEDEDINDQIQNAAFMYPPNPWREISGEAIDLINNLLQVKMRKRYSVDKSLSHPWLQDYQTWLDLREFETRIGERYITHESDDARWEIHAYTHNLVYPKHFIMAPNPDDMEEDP

Kdr = Kdr (Homo sapiens (Human), UniProt P35968); test: Kinase panel selectivity: Kdr; assay type: biochemical
Kdr, sequence (P35968 20-1356, species assumed): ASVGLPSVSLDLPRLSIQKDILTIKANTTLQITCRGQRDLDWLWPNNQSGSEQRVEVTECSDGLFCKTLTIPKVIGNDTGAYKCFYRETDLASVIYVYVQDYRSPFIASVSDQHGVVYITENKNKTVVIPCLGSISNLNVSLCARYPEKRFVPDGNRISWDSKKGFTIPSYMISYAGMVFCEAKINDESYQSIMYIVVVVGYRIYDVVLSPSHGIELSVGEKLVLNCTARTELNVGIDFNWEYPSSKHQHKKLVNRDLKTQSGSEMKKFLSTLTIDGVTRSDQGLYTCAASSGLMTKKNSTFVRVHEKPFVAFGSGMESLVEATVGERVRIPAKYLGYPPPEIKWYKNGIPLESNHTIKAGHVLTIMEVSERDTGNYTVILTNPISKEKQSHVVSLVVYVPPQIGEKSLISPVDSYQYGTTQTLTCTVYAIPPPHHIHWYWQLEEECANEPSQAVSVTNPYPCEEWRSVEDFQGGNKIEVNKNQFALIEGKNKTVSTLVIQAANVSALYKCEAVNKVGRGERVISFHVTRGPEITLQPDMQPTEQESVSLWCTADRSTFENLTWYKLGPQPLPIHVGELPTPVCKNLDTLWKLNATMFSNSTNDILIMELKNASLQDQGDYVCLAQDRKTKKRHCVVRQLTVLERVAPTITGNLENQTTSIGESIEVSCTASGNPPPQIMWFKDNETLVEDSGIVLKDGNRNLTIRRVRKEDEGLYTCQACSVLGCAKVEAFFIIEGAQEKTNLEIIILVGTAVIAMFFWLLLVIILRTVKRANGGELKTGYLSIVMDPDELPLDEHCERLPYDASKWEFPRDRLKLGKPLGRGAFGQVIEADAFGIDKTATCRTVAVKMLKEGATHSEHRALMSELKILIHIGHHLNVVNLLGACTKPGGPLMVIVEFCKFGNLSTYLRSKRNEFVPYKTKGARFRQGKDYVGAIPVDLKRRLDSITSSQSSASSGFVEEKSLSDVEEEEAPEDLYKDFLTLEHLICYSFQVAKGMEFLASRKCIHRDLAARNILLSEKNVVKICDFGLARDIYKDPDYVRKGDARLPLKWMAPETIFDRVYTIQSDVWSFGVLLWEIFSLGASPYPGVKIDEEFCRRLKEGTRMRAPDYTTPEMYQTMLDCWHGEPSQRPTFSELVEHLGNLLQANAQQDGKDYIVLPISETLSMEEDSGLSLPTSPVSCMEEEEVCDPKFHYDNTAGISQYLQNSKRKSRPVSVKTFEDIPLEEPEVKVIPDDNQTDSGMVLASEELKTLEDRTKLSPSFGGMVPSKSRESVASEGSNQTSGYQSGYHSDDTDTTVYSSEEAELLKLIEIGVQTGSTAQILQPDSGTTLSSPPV

C. parvum Iowa strain = test: C. parvum infection in mice (beige/SCID mouse model); conditions: oral gavage 20 mg/kg 8 AM and 40 mg/kg 5 PM, days 5-14 after infection; each time point except Days 0 and 3; p≦0.05
[7] = Pharmacokinetic studies in mice; conditions: mouse, in vivo, 10 mg/kg
[8] = Table 1, KinaseGlo, Syntide 2 peptide substrate, read-out: TgCDPK1 IC50
[9] = Table 1, KinaseGlo, Syntide 2 peptide substrate, read-out: CpCDPK1 IC50
[10] = Table 3, read-out: T. gondii EC50
[11] = Table 3, read-out: Cytotoxicity (CRL8155) EC50
[12] = Table 4, read-out: Cell toxicity (EC50, μM) CRL 8155
[13] = Enzyme Inhibition (IC50, μM) SrcKD, Table 4
[14] = Table 2, read-out: Cytotoxicity (CRL8155) EC50
[15] = Table 4, read-out: Enzyme Inhibition (IC50, μM) Cp CDPK1

CpCDPK1, sequence (A3FQ16 1-538): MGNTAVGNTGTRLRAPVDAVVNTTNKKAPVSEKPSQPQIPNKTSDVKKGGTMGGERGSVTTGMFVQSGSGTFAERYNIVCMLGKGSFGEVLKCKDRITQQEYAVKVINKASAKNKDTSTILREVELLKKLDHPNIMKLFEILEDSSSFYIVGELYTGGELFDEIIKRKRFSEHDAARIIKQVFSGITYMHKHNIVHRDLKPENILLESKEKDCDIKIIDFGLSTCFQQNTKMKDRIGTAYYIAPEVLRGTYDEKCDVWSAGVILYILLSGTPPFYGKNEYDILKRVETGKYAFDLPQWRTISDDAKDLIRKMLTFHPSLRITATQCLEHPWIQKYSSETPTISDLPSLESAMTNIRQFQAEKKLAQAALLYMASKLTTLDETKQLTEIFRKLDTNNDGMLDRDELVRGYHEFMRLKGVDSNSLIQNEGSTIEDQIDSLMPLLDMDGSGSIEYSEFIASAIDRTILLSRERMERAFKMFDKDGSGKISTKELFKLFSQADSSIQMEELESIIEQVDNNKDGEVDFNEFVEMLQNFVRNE
TgCDPK1, sequence (Q9BJF5 1-507): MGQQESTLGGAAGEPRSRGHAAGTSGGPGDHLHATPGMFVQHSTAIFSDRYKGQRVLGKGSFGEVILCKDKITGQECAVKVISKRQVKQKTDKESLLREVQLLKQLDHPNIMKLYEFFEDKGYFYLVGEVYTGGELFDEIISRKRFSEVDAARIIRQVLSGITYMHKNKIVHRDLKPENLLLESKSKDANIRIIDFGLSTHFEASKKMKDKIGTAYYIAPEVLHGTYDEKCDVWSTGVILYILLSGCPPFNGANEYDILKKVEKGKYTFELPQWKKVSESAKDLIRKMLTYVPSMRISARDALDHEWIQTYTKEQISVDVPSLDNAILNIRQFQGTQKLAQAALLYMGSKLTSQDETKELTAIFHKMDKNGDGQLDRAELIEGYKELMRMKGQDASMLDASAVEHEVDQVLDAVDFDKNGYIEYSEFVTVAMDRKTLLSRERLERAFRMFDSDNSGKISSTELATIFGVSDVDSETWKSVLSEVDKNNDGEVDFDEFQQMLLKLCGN

NC(=O)c1c(-c2ccc3nc(OC4CCC4)ccc3c2)nn(C2CCCC2)c1N [Compound 1653, 5-amino-3-(2-cyclobutoxyquinolin-6-yl)-1-cyclopentyl-1H-pyrazole-4-carboxamide]
IC50 (TgCDPK1; [8]): 0.012 µM | IC50 (CpCDPK1; [9]): 0.006 µM | EC50 (T. gondii; [10]): 0.21 µM | EC50 [1, 11]: > 40 µM | IC50 (Src): > 10 µM

CCCOc1ccc2cc(-c3nn(C(C)(C)C)c(N)c3C(N)=O)cnc2c1 [Compound 1566, 5-amino-1-tert-butyl-3-(7-propoxyquinolin-3-yl)-1H-pyrazole-4-carboxamide]
EC50 [1, 11]: > 40 µM | EC50 [1, 12]: 16 µM | EC50 (Cell toxicity in HepG2): > 40 µM | IC50 (Src; [13]): > 10 µM | IC50 (Src; Src IC50 (μM), Table 3): > 10 µM | IC50 (Abl): > 10000 nM

NC(=O)c1c(-c2cnc3cc(OC4CCC4)ccc3c2)nn(C2CCCCC2)c1N [Compound 1647, 5-amino-3-(7-cyclobutoxyquinolin-3-yl)-1-cyclohexyl-1H-pyrazole-4-carboxamide]
IC50 (TgCDPK1; [8]): 0.019 µM | IC50 (CpCDPK1; [9]): 0.008 µM | EC50 (T. gondii; [10]): 1.14 µM | EC50 [1, 11]: > 40 µM | IC50 (Src): > 10 µM

CCOc1ccc2cc(-c3nn(C(C)C)c(N)c3C(N)=O)cnc2c1 [Compound 1572, 5-amino-3-(7-ethoxyquinolin-3-yl)-1-isopropyl-1H-pyrazole-4-carboxamide]
IC50 (CpCDPK1; [9]): 0.005 µM | EC50 [1, 12]: > 40 µM | EC50 (Cell toxicity in HepG2): > 40 µM

CCOc1ccc2cc(-c3nn(C(C)(C)C)c(N)c3C(N)=O)cnc2c1 [Compound 39, 5-amino-1-(tert-butyl)-3-(7-ethoxyquinolin-3-yl)-1H-pyrazole-4-carboxamide]
EC50 (C. parvum; Table 4): 0.05 µM | EC50 [1, 14]: > 30 µM | EC50 [1, 11]: > 30 µM | EC50 [1, 12]: > 40 µM | EC50 (Cell toxicity in HepG2): > 40 µM | hERG inhibitory activity (in words) (hERG): no hERG inhibitory activity | solubility (in words) (Solubility at pH 6.5): good solubility | mean parasite burden decreased ([2]; oral gavage 5/10 mg/kg [AM/PM] for 5 d): 69% | mean parasite burden decreased ([2]; oral gavage 20/40 mg/kg [AM/PM] for 5 d): 93% | Papp (P-gp): 56.3 ×10⁻⁶ cm/s | inhibition of human protein kinases (panel of 80 hPKs) [3]: No hPKs were inhibited | signal in 24 off-target liability screen [4]: no signal was detected | stability (in words) [5]: good stability | oral availability (in words) [6]: higher oral availability | IC50 (Prkcn): 1110 nM | Ki (Prkcn): 427 nM | IC50 (Kdr): 2460 nM | Ki (Kdr): 569 nM | oocysts shed in mouse stool, treated vs vehicle (C. parvum Iowa strain): the difference was significant

COc1ccc2cc(-c3nn(C(C)(C)C)c(N)c3C(N)=O)ccc2c1 [Compound 25, 5-amino-1-(tert-butyl)-3-(6-methoxynaphthalen-2-yl)-1H-pyrazole-4-carboxamide]
EC50 (C. parvum): 0.1 µM | EC50 [1, 14]: > 40 µM | EC50 [1, 12]: > 40 µM | EC50 (Cell toxicity in HepG2): > 40 µM | IC50 (hERG): > 10000 nM | AUC [7]: 5.94 µM·h | Cmax [7]: 3.1 µM | Tmax [7]: 30 min

CCOc1ccc2cc(-c3nn(C4CCCCC4)c(N)c3C(N)=O)cnc2c1 [Compound 1571, 5-amino-1-cyclohexyl-3-(7-ethoxyquinolin-3-yl)-1H-pyrazole-4-carboxamide]
IC50 (CpCDPK1; [9]): 0.005 µM | EC50 [1, 12]: > 40 µM | EC50 (Cell toxicity in HepG2): > 40 µM | IC50 (Src; [13]): 10 µM | IC50 (Src; Src IC50 (μM), Table 3): > 10 µM | IC50 (Abl): > 10000 nM

CCCOc1ccc2cc(-c3nn(C(C)(C)C)c(N)c3C(N)=O)ccc2c1 [Compound 26, 5-amino-1-(tert-butyl)-3-(6-propoxynaphthalen-2-yl)-1H-pyrazole-4-carboxamide]
IC50 (TgCDPK1; read-out: Enzyme Inhibition (IC50, μM) Tg CDPK1): 0.007 µM | IC50 (TgCDPK1; read-out: TgCDPK1 IC50): 0.007 µM | IC50 (CpCDPK1; [9]): 0.01 µM | IC50 (CpCDPK1; [15]): 0.01 µM | EC50 (T. gondii; Table 4, read-out: Inhibit Parasite Prolif. (EC50, μM) T. gondii): 0.37 µM | EC50 [1, 12]: 38 µM | EC50 (Cell toxicity in HepG2): > 40 µM | IC50 (Src): 7.8 µM | IC50 (Abl): > 10000 nM

NC(=O)c1c(-c2ccc3nc(OC4CCC4)ccc3c2)nn(C2CCC2)c1N [Compound 1656, 5-amino-3-(2-cyclobutoxyquinolin-6-yl)-1-cyclobutyl-1H-pyrazole-4-carboxamide]
IC50 (TgCDPK1; [8]): 0.007 µM | EC50 (T. gondii; [10]): 0.069 µM | EC50 [1, 11]: > 40 µM | IC50 (Src): > 10 µM

NC(=O)c1c(-c2cnc3cc(OC4CCC4)ccc3c2)nn(C2CCC2)c1N [Compound 1657, 5-amino-3-(7-cyclobutoxyquinolin-3-yl)-1-cyclobutyl-1H-pyrazole-4-carboxamide]
IC50 (TgCDPK1; [8]): 0.012 µM | EC50 (T. gondii; [10]): 0.69 µM | EC50 [1, 11]: > 40 µM | IC50 (Src): > 10 µM

CC(C)(CO)Cn1nc(-c2ccc3nc(OC4CCC4)ccc3c2)c(C(N)=O)c1N [Compound 1645, 5-amino-3-(2-cyclobutoxyquinolin-6-yl)-1-(3-hydroxy-2,2-dimethylpropyl)-1H-pyrazole-4-carboxamide]
IC50 (CpCDPK1; [9]): 0.005 µM | EC50 (T. gondii; [10]): 0.48 µM | EC50 [1, 11]: > 40 µM | IC50 (Src; Src IC50 (μM), Table 3): > 10 µM

CCOc1ccc2cc(-c3nn(C(C)(C)C)c(N)c3C(N)=O)ccc2c1 [Compound 3, 5-amino-1-tert-butyl-3-(6-ethoxynaphthalen-2-yl)-1H-pyrazole-4-carboxamide]
EC50 (C. parvum): 0.05 µM | EC50 (Cell toxicity in HepG2): > 40 µM

COc1ccc2cc(-c3nn(C(C)(C)C)c(N)c3C(N)=O)cnc2c1 [Compound 1543, 5-amino-1-tert-butyl-3-(7-methoxyquinolin-3-yl)-1H-pyrazole-4-carboxamide]
IC50 (CpCDPK1; [9]): 0.003 µM | IC50 (CpCDPK1; [15]): 0.003 µM | EC50 [1, 11]: > 40 µM | EC50 [1, 12]: > 40 µM | EC50 (Cell toxicity in HepG2): > 40 µM | IC50 (Src; [13]): > 10 µM | IC50 (Src; Src IC50 (μM), Table 3): > 30 µM | IC50 (Abl): > 10000 nM

CC(C)(CO)Cn1nc(-c2cnc3cc(OC4CCC4)ccc3c2)c(C(N)=O)c1N [Compound 1644, 5-amino-3-(7-cyclobutoxyquinolin-3-yl)-1-(3-hydroxy-2,2-dimethylpropyl)-1H-pyrazole-4-carboxamide]
IC50 (TgCDPK1; [8]): 0.012 µM | IC50 (CpCDPK1; [9]): 0.005 µM | EC50 (T. gondii; [10]): 0.77 µM | EC50 [1, 11]: > 40 µM | IC50 (Src): > 10 µM

NC(=O)c1c(-c2cnc3cc(OC4CCC4)ccc3c2)nn(C2CCCC2)c1N [Compound 1658, 5-amino-3-(7-cyclobutoxyquinolin-3-yl)-1-cyclopentyl-1H-pyrazole-4-carboxamide]
IC50 (TgCDPK1; [8]): 0.012 µM | IC50 (CpCDPK1; [9]): 0.004 µM | EC50 (T. gondii; [10]): 0.4 µM | EC50 [1, 11]: > 40 µM | IC50 (Src): > 10 µM

NC(=O)c1c(-c2ccc3nc(OC4CCC4)ccc3c2)nn(C2CCCCC2)c1N [Compound 1646, 5-amino-3-(2-cyclobutoxyquinolin-6-yl)-1-cyclohexyl-1H-pyrazole-4-carboxamide]
IC50 (TgCDPK1; [8]): 0.016 µM | IC50 (CpCDPK1; [9]): 0.013 µM | EC50 (T. gondii; [10]): 0.31 µM | EC50 [1, 11]: > 40 µM | IC50 (Src): > 10 µM
